Experimental data reported in patent US12378243B2, “Quinoline compounds as inhibitors of KRAS” (Incyte Corporation, priority 2021, dated 2025).

How the values were obtained:
KRAS G12V mutant = KRAS G12V mutant (Homo sapiens, UniProt P01116, G12V); experiment: GDP-GTP exchange assay, KRAS G12V; type: biochemical; details: bodipy loaded KRAS G12V 2.5 nM; 3 hours incubation after adding GppNHp-SOS1 mixture; read-out: G12V_exchange
KRAS G12D = KRAS G12D (Homo sapiens, UniProt P01116, G12D); experiment: GDP-GTP exchange assay, KRAS G12D; type: biochemical; details: bodipy-loaded KRAS G12D 2.5 nM, GppNHp 500 uM, SOS1 150 nM; 4 hours pre-incubation, 2 hours incubation; read-out: G12D_exchange
Chain of KRAS G12D (P01116 1-188 isoform P01116-2 G12D): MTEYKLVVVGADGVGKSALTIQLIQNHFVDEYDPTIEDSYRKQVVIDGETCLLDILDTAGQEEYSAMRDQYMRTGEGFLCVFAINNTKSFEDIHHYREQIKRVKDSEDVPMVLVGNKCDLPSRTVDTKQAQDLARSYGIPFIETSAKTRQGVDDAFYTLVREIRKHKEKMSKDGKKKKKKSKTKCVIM
Description: Inhibitors were serially diluted in DMSO and a volume of 0.1 μL was transferred to the wells of a black low volume 384-well plate. […] The exchange was initiated by the addition of a 5 μL/well volume containing 1 mM GppNHp and 300 nM SOS1 in assay buffer. […] The reaction plates were incubated at ambient temperature for 2 hours, a time estimated for complete GDP-GTP exchange in the absence of inhibitor.
Either GraphPad prism or Genedata Screener SmartFit was used to analyze the data. The IC50 values were derived by fitting the data to a four parameter logistic equation producing a sigmoidal dose-response curve with a variable Hill coefficient.
“NA” indicates IC50 not available.

Caco-2 cells = experiment: Caco2 assay (permeability, A-B); type: in vitro ADME; details: Papp absorptive direction (A-B), test compound 50 μM, 120 minutes at 37° C.
Description: Caco-2 cells are grown at 37° C. in an atmosphere of 5% CO2 in DMEM growth medium supplemented with 10% (v/v) fetal bovine serum, 1% (v/v) nonessential amino acids, penicillin (100 U/mL), and streptomycin (100 μg/mL). Confluent cell monolayers are subcultured every 7 days or 4 days for Caco-2 by treatment with 0.05% trypsin containing […]. Caco-2 cells are seeded in 96-well Transwell plates. The seeding density for Caco-2 cells is 14,000 cells/well. DMEM growth medium is replaced every other day after seeding. Cell monolayers are used for transport assays between 22 and 25 days for Caco-2 cells.
Cell culture medium is removed and replaced with HBSS. To measure the TEER, the HBSS is added into the donor compartment (apical side) and receiver compartment (basolateral side). The TEER is measured by using a REMS Autosampler to ensure the integrity of the cell monolayers. Caco-2 cell monolayers with TEER values ≥300 Ω·cm^2 are used for transport experiments. To determine the Papp in the absorptive direction (A-B), solution of test compound (50 μM) in HBSS is added to the donor compartment (apical side), while HBSS solution with 4% BSA is added to the receiver compartment (basolateral side). The apical volume was 0.075 mL, and the basolateral volume is 0.25 mL. The incubation period is 120 minutes at 37° C. in an atmosphere of 5% CO2. At the end of the incubation period, samples from the donor and receiver sides are removed and an equal volume of acetonitrile is added for protein precipitation. The supernatants are collected after centrifugation (3000 rpm, Allegra X-14R Centrifuge from Beckman Coulter, Indianapolis, IN) for LCMS analysis. The permeability value is determined according to the equation:
[formula] • where the flux rate (F, mass/time) is calculated from the slope of cumulative amounts of compound of interest on the receiver side, SA is the surface area of the cell membrane, VD is the donor volume, and MD is the initial amount of the solution in the donor chamber.
The symbol “+” indicates a Caco-2 value of […], “++” indicates a Caco-2 value of >0.5 but ≤1; and “+++” indicates a Caco-2 value of >1. “NA” indicates IC50 not available.

Chain of KRAS G12V mutant (P01116 1-188 isoform P01116-2 G12V): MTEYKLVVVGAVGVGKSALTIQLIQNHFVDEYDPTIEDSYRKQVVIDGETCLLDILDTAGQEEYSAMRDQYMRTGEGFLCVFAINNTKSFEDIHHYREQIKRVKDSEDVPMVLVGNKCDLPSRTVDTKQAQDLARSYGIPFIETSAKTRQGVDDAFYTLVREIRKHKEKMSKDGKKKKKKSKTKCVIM

Row | Structure (SMILES) | IC50 (KRAS G12V mutant) [nM] | IC50 (KRAS G12D) [nM] | Caco-2 (Caco-2 cells; Table 3) | Caco-2 (Caco-2 cells; Table 4)
1 | CC(=O)N1CC[C@H](n2ncc3c(O[C@@H](C)[C@@H]4CCCN4C)nc4c(F)c(-c5cccc6cccc(C#N)c56)c(C#N)cc4c32)C[C@H]1CC#N (single isomer, unassigned) [Example 7] | < 100 | < 100 | +++ (a Caco-2 value of >1) | –
2 | Cc1cc2c(nc(O[C@@H](C)[C@@H]3CCCN3C)c3cc(CN4CCOCC4=O)n([C@H]4[C@H]5CN[C@@H]4C5)c32)c(F)c1-c1cccc2cccc(C#N)c12 (single isomer, unassigned) [Example 8] | < 100 | < 100 | + (a Caco-2 value of 50.5) | –
3 | C[C@H](Oc1nc2c(F)c(-c3csc4ccccc34)c(CCC#N)cc2c2c1cc(CN1CCCC1=O)n2[C@H]1[C@H]2CN[C@@H]1C2)[C@@H]1CCCN1C (single isomer, unassigned) [Example 9] | < 100 | < 100 | + (a Caco-2 value of 50.5) | –
4 | C[C@@H](CN(C)C)Oc1nc2c(F)c(-c3cccc4ccc(F)cc34)c(CCC#N)cc2c2c1cc(CN1CCCC1=O)n2[C@H]1[C@H]2CN[C@@H]1C2 (single isomer, unassigned) [Example 10] | < 100 | < 100 | + (a Caco-2 value of 50.5) | –
5 | Cc1cc2c(O[C@@H](C)[C@@H]3CCCN3C)nc3c(F)c(-c4cccc5cccc(C#N)c45)c(CCC#N)cc3c2n1[C@H]1[C@H]2CN[C@@H]1C2 (single isomer, unassigned) [Example 11] | < 100 | < 100 | + (a Caco-2 value of 50.5) | –
6 | Cc1cc2c(O[C@@H](C)[C@@H]3CCCN3C)nc3c(F)c(-c4cc(O)cc(Cl)c4Cl)c(CCC#N)cc3c2n1[C@H]1[C@H]2CN[C@@H]1C2 (single isomer, unassigned) [Example 12] | < 100 | < 100 | + (a Caco-2 value of 50.5) | –
7 | CN1CC(F)(COc2nc3c(F)c(-c4cc(O)cc5ccccc45)c(CCC#N)cc3c3c2cc(CCC(=O)N(C)C)n3[C@H]2[C@H]3CN[C@@H]2C3)C1 (single isomer, unassigned) [Example 13] | < 100 | < 100 | – | –
8 | Cc1cnc(-c2nc3c(F)c(-c4cc(O)cc5ccccc45)c(CCC#N)cc3c3c2cc(C)n3[C@H]2[C@H]3CN[C@@H]2C3)cn1 (single isomer, unassigned) [Example 14] | < 100 | < 100 | ++ (a Caco-2 value of >0.5 but ≤1) | –
9 | C[C@H](Oc1nc2c(F)c(-c3cccc4ccc(F)c(F)c34)c(CCC#N)cc2c2c1cc(CCC(=O)N1CCC1)n2[C@H]1[C@H]2CN[C@@H]1C2)[C@@H]1CCCN1C (single isomer, unassigned) [Example 20] | < 100 | < 100 | + (a Caco-2 value of 50.5) | –
10 | C[C@H](Oc1nc2c(F)c(-c3cccc4cc(F)c(F)cc34)c(CCC#N)cc2c2c1cc(CCC(=O)N1CCC1)n2[C@H]1[C@H]2CN[C@@H]1C2)[C@@H]1CCCN1C (single isomer, unassigned) [Example 21] | < 100 | < 100 | + (a Caco-2 value of 50.5) | –
11 | Cc1cc2c(O[C@@H](C)[C@@H]3CCCN3C)nc3c(F)c(-c4cc(O)cc5ccc(F)cc45)c(CCC#N)cc3c2n1[C@H]1[C@H]2CN[C@@H]1C2 (single isomer, unassigned) [Example 22] | < 100 | < 100 | + (a Caco-2 value of 50.5) | –
12 | CC(=O)N1CC[C@H](n2ncc3c(O[C@@H](C)[C@@H]4CCCN4C)nc4c(F)c(-c5nccc6cccc(C#N)c56)c(Cl)cc4c32)C[C@H]1CC#N (single isomer, unassigned) [Example 23a] | < 100 | < 100 | – | –
13 | CC(=O)N1CC[C@H](n2ccc3c(O[C@@H](C)[C@@H]4CCCN4C)nc4c(F)c(-c5cccc6cccc(C#N)c56)c(Cl)cc4c32)C[C@H]1CC#N (single isomer, unassigned) [Example 24a] | < 100 | < 100 | – | –
14 | Cc1nc2c(F)c(-c3cccc(Cl)c3Cl)c(CCC#N)cc2c2c1cc(C1CCc3cccc(=O)n31)n2[C@H]1[C@H]2CN[C@@H]1C2 (single isomer, unassigned) [Example 31] | < 100 | < 100 | – | + (a Caco-2 value of 50.5)
15 | CC(=O)N1CCC[C@@H]1c1cc2c(-c3ccnc(C)c3)nc3c(F)c(-c4cccc5c4C(C#N)CCC5)c(C)cc3c2n1[C@H]1[C@H]2CN[C@@H]1C2 (single isomer, unassigned) [Example 35] | < 100 | < 100 | – | ++ (a Caco-2 value of >0.5 but ≤1)
16 | CNC(=O)c1ccc(-c2nc3c(F)c(-c4cccc(Cl)c4C)c(CCC#N)cc3c3c2cc([C@@H](C)n2ccncc2=O)n3[C@H]2[C@H]3CN[C@@H]2C3)cn1 (single isomer, unassigned) [Example 36] | < 100 | < 100 | – | +++ (a Caco-2 value of >1)
17 | Cc1cnc(-c2nc3c(F)c(-c4cccc(Cl)c4C)c(CCC#N)cc3c3c2cc([C@@H](C)n2ccncc2=O)n3[C@H]2[C@H]3CN[C@@H]2C3)cn1 (single isomer, unassigned) [Example 38] | < 100 | < 100 | – | +++ (a Caco-2 value of >1)
18 | CNC(=O)c1ccc(-c2nc3c(F)c(-c4cccc(Cl)c4Cl)c(CCC#N)cc3c3c2cc([C@@H](C)n2ccncc2=O)n3[C@H]2[C@H]3CN[C@@H]2C3)cc1F (single isomer, unassigned) [Example 54b] | < 100 | < 100 | – | +++ (a Caco-2 value of >1)
19 | Cc1cc2c(-n3cncn3)nc3c(F)c(-c4cc(O)cc5ccc(Cl)cc45)c(CCC#N)cc3c2n1[C@H]1[C@H]2CN[C@@H]1C2 [Example 1, 3-(1-((1R,4R,5S)-2-Azabicyclo[2.1.1]hexan-5-yl)-7-(7-chloro-3-hydroxynaphthalen-1-yl)-6-fluoro-2-methyl-4-(1H-1,2,4-triazol-1-yl)-1H-pyrrolo[3,2-c]quinolin-8-yl)propanenitrile] | < 100 | < 100 | ++ (a Caco-2 value of >0.5 but ≤1) | –
20 | CC(=O)N1CC[C@H](n2ncc3c(O[C@@H](C)[C@@H]4CCCN4C)nc4c(F)c(-c5nccc6cccc(C#N)c56)c(Cl)cc4c32)C[C@H]1CC#N [Example 23, 1-(1-((2S,4S)-1-Acetyl-2-(cyanomethyl)piperidin-4-yl)-8-chloro-6-fluoro-4-((S)-1-((S)-1-methylpyrrolidin-2-yl)ethoxy)-1H-pyrazolo[4,3-c]quinolin-7-yl)isoquinoline-8-carbonitrile] | – | – | ++ (a Caco-2 value of >0.5 but ≤1) | –
21 | CC(=O)N1CC[C@H](n2ccc3c(O[C@@H](C)[C@@H]4CCCN4C)nc4c(F)c(-c5cccc6cccc(C#N)c56)c(Cl)cc4c32)C[C@H]1CC#N [Example 24, 8-(1-((2S,4S)-1-acetyl-2-(cyanomethyl)piperidin-4-yl)-8-chloro-6-fluoro-4-((S)-1-((S)-1-methylpyrrolidin-2-yl)ethoxy)-1H-pyrrolo[3,2-c]quinolin-7-yl)-1-naphthonitrile] | – | – | + (a Caco-2 value of 50.5) | –
22 | Cc1cnc(-c2nc3c(F)c(-c4cccc(Cl)c4C)c(CCC#N)cc3c3c2cc([C@@H](C)N2CCOCC2=O)n3[C@H]2[C@H]3CN[C@@H]2C3)cn1 [Example 44, 3-(1-((1R,4R,5S)-2-Azabicyclo[2.1.1]hexan-5-yl)-7-(3-chloro-2-methylphenyl)-6-fluoro-4-(5-methylpyrazin-2-yl)-2-((R)-1-(3-oxomorpholino)ethyl)-1H-pyrrolo[3,2-c]quinolin-8-yl)propanenitrile] | – | – | – | +++ (a Caco-2 value of >1)
